Measurements published in PMC12040169 (PLOS Biology, 2025).

test: in vitro; conditions: human, hela cells, % viability

| Structure (SMILES) | viability at 28.5 h, 10 µM [%] |
| --- | --- |
| CS(=O)(=O)N(CC(=O)O)c1cccc(C(F)(F)F)c1 [CBK286988] | 87.8 |
| Cc1ccn2c(F)c(C(=O)N3CCCCC3CN3CCOCC3)nc2c1 (stereo not drawn) [CBK307028] | 82 |
| O=S(=O)(c1ccc(F)c(F)c1F)n1ccc2c(N3CCNCC3)nccc21 [CBK059066C] | 106 |
| C=CCn1c(-c2sc(NC(=O)CNC(=O)C(C)(C)C)nc2C)n[nH]c1=S [CBK297907] | 91.2 |
| CNC(=O)c1cc(S(=O)(=O)N(C2CC2)C2CCc3ccccc32)cn1C (stereo not drawn) [CBK305988] | 106 |
| NS(=O)(=O)c1cccc(NC(=O)COc2ccc([N+](=O)[O-])cc2)c1 [CBK263624] | 92.2 |
| CCC(NS(=O)(=O)c1ccc(Br)cc1)C(=O)O (stereo not drawn) [CBK264472] | 97 |
| Cn1cc([C@@H]2O[C@H](CO)[C@H](O)C2O)c(=O)n(C)c1=O (stereo partly drawn) [CBK201191] | 97.1 |
| CN(C)c1ccccc1-c1cc(NC2CCCCC2)ncn1 [CBK037041] | 105 |
| Cc1cccnc1C(NC(=O)C1CCN(C(=O)N2CCCC2)CC1)c1cccs1 (stereo not drawn) [CBK060124] | 106 |
| O=C(O)CN(CC(=O)O)c1ccccc1 [CBK261326] | 90.7 |
| CN(C)CCN(C)C(=O)c1cc(Br)cnc1N(C)S(C)(=O)=O [CBK076476] | 96.2 |
| CS(=O)(=O)c1ccc(C(=O)Nc2nccs2)cc1 [CBK255213] | 98.3 |
| COc1ccc(Cc2nc(CC3CCCOC3)n(CC(F)(F)F)n2)cc1 (stereo not drawn) [CBK307140] | 112 |
| CCc1nn(CC(=O)N(CC)CC)c(=O)c2cc3ccsc3n12 [CBK284132] | 88.2 |
| CC(C)(C)C1=CC2=NC3(CCC3)[C@@H]3C[C@@H](O)[C@@H](O)[C@@H]3N2O1 [CBK303243] | 104 |
| COc1ccccc1CCCN1CCC(C(=O)NC(=O)Nc2ccccc2)CC1 [CBK034865] | 89.7 |
| Cc1nn(Cc2ccc(F)cc2)c2sc(C(=O)NCc3ccc(S(N)(=O)=O)cc3)cc12 [CBK295181] | 87 |
| Cc1ccc(-c2ncc(OCCN(C(C)C)C(C)C)nc2N)cc1C [CBK145150] | 85.9 |
| CSCCN1CCN(c2nccnc2OCC2COc3ccccc3O2)CC1 (stereo not drawn) [CBK082806T] | 85.2 |
| CC(O)(CC(=O)O)C12CC3CC(CC(C3)C1)C2 (stereo not drawn) [CBK261245] | 114 |
| C=CCc1cc(C)cc(C)c1OCCN1CCN(C)CC1 [CBK269672C] | 101 |
| Cc1cc(Cl)c(S(=O)(=O)N2CC(C)OC(C)C2)cc1OCC(N)=O (stereo not drawn) [CBK266452] | 109 |

| Structure (SMILES) | viability at 28.5 h, 10 µM [%] |
| --- | --- |
| Cc1cc(CN(C)Cc2c(C)nc3ccc(Cl)cn23)n[nH]1 [CBK281913] | 108 |
| Cc1ccc(C)c(-c2csc3c(=O)[nH]cnc23)c1 [CBK288556] | 101 |
| Cc1ccc(CS(=O)(=O)N(CCO)C2CCC2)c(F)c1 [CBK304101] | 82.2 |
| COc1cccc(C2C(C(=O)c3ccc(Cl)cc3)=C(O)C(=O)N2CCCN2CCOCC2)c1 (stereo not drawn) [CBK264865] | 105 |
| Cc1cc(Br)c(NCC(=O)N/N=C/c2ccc(O)cc2)c(Br)c1 [CBK263506] | 101 |
| Cc1nnc(CN(C)C2CCN(CCCc3ccccc3)C2)n1C (stereo not drawn) [CBK304000] | 115 |
| CC(C)(C)c1ccc(C(=O)Nc2cnn(CCCC(=O)O)c2)cc1 [CBK269929] | 94.2 |
| Oc1ccccc1C(=S)N1CCCCC1 [CBK027552] | 92.8 |
| CC(=O)C1=C(C)N(CC2CCCO2)C(=O)C1(NC(=O)c1ccc(C(C)(C)C)cc1)C(F)(F)F (stereo not drawn) [CBK268043] | 93.2 |
| CCN(CC)C(=O)C1CCN(S(=O)(=O)c2ccc(C)cc2)CC1 [CBK157834] | 98.7 |
| COc1ccc(NC(=O)CSc2ncnc3sc(C)cc23)c(OC)c1 [CBK277541] | 100 |
| CC(=O)N1CCN(c2nnc(-c3ccccc3)o2)CC1 [CBK170332] | 87.9 |
| Cn1cc(Cl)c(C2CCCCCN2S(=O)(=O)c2ccc3[nH]c(=O)[nH]c(=O)c3c2)n1 (stereo not drawn) [CBK286408] | 89.3 |
| CC(=O)Nc1ccc(C(=O)N(Cc2ccccn2)CC2CCCO2)cn1 (stereo not drawn) [CBK306784] | 83.7 |
| Cc1ccc(-n2nc(C(=O)O)c(C)c(C#N)c2=O)cc1C [CBK286987] | 93.3 |
| CCN(CC)C(=O)c1c(NC(=O)c2cccs2)sc2c1CCC2 [CBK307096] | 93 |
| Cc1ccsc1C(=O)Nc1ncn(CC(=O)N2CCCCCC2)n1 [CBK304192] | 92.5 |
| Cn1cc(CC(=O)N2CCCc3ccccc32)c2ccccc21 [CBK200349] | 64.8 |
| Cc1ccn(CCNC(=O)c2[nH]c3c(Cl)cccc3c2C)n1 [CBK282608] | 97.9 |
| Cc1cc(/C=C(/C#N)c2ccc([N+](=O)[O-])cc2)c(C)n1-c1ccc(S(N)(=O)=O)cc1 [CBK266737] | 108 |
| CCc1ccc2nc3c(cc2c1)CNCCO3 [CBK281940] | 91.6 |
| CS(=O)(=O)c1ccc(Cn2ccnc(N3CCC(Sc4ccccc4)CC3)c2=O)cc1 [CBK144444] | 84.2 |
| CN(C)CC(O)CN1C(=O)NC(C)(C)C1=O (stereo not drawn) [CBK027078] | 114 |

| Structure (SMILES) | viability at 28.5 h, 10 µM [%] |
| --- | --- |
| C=Cn1ncc(CN2CCc3[nH]c4ccc(OCC)cc4c3C2)c1C [CBK282574] | 89.7 |
| CC(C)CSc1nsc(N)n1 [CBK019938] | 97.1 |
| COC(=O)c1sc2cc(C(F)(F)F)cnc2c1-c1ccccn1 [CBK089888] | 93.2 |
| O=C(NC(c1ccc(Cl)cc1)c1cccnc1)C1CCN(C(=O)c2ccco2)CC1 (stereo not drawn) [CBK059708] | 92.4 |
| Cc1nc(C)c(C(=O)N2C3CCC2c2cc(Cl)cnc2C3)s1 (stereo not drawn) [CBK284953] | 103 |
| O=C(c1cccnc1)C1CCN(C(=O)Cc2ccccc2Cl)CC1 [CBK283690] | 90.3 |
| CN1CCC[C@H]1C(=O)N1CCCC2(CCN(Cc3ccccc3)C2)C1 (stereo partly drawn) [CBK136901] | 90.7 |
| O=C(O)Cn1c2ccccc2c2cc([N+](=O)[O-])ccc21 [CBK261732] | 82.6 |
| CC(C)NC(=O)Cn1c(-c2ccc(F)cc2)cc2cccnc21 [CBK284862] | 107 |
| O=C(CN(c1ccc2c(c1)OCCO2)S(=O)(=O)c1ccccc1)N1CCN(Cc2ccccc2)CC1 [CBK266444] | 113 |
| CCC(/C=C1\Oc2ccc(OC)cc2N1C)=C\c1sc2ccccc2[n+]1CCCS(=O)(=O)[O-] [CBK261080] | 90.3 |
| CCc1nc(-c2ccc(N(C)C)nc2)nn1C [CBK307381] | 106 |
| OCCN1CCN(c2nccc(C(F)(F)F)n2)CC1 [CBK028754] | 107 |
| Cc1ccccc1C1NS(=O)(=O)NC1=N (stereo not drawn) [CBK263852] | 96.5 |
| Cc1cc2ccccc2n2c(=O)n(CC(=O)N(C(C)C)C(C)C)nc12 [CBK283885] | 87.1 |
| O=C(c1ccncc1)C12CN3CN(CN(C3)C1)C2 [CBK261451] | 97.6 |
| c1ccc(CCCNc2ncc(-c3ccc(N4CCOCC4)cc3)n3ccnc23)cc1 [CBK091223] | 112 |
| COc1ccc2oc(-c3ccc(NC(=O)c4cccc5ccccc45)cc3)nc2c1 [CBK267610] | 110 |
| COc1ccc(C(=O)NC(N2CCCCC2)C(Cl)(Cl)Cl)cc1 (stereo not drawn) [CBK087021] | 89.1 |
| N#Cc1ccc(CNC(=O)N2CCCC(CO)C2)cc1 (stereo not drawn) [CBK156043] | 94.3 |
| Cc1onc(-c2ccccc2Cl)c1C(=O)Nc1ccc(CC(=O)O)cc1 [CBK269623] | 89.2 |
| CCCc1[nH]nc(O)c1Cc1ccccc1CS(=O)(=O)c1ccccc1 [CBK074347] | 87.8 |
| O=c1[nH]c(=O)c2nnc(N/N=C\c3ccc(O)cc3)nc2[nH]1 [CBK263312] | 94.1 |

| Structure (SMILES) | viability at 28.5 h, 10 µM [%] |
| --- | --- |
| O=C(CSCc1ccccc1Br)Nc1ccccc1-c1ccccc1 [CBK265959] | 88.4 |
| COc1cc(CNC(=O)c2cnoc2-c2ccc(Br)cc2)cc(OC)c1OC [CBK154893] | 110 |
| CN1CCN(c2ncc(-c3ccc(N4CCOCC4)cc3)n3ccnc23)CC1 [CBK091226] | 103 |
| CC(C)c1nccn1-c1ccc(NC(=O)CCCn2ccnc2)cc1 [CBK281380] | 93 |
| COc1cccc(CN2CCCC[C@H]3CN(C(C)=O)C[C@H]32)c1 [CBK285510] | 107 |
| CCn1nc(C)c(-c2cncn2CC(C)n2nc(C)cc2C)c1C (stereo not drawn) [CBK281777] | 109 |
| CC(C)Cc1nc(Cn2cnc3c(cnn3C)c2=O)no1 [CBK306256] | 90.7 |
| Cc1no[n+]([O-])c1COc1cccc(/C=C2\N=C(c3ccccc3)OC2=O)c1 [CBK263454] | 96.3 |
| Cc1cnc(NC(=O)N2CCOC(c3ccc(F)cc3F)C2)s1 (stereo not drawn) [CBK304126] | 88.5 |
| CCc1cc(CNC(=O)C2CN(Cc3ccc(Cl)cc3)C2)on1 [CBK281564] | 97.8 |
| COc1nc(-c2ccccc2)ccc1-c1noc(COc2ccccc2)n1 [CBK266841] | 91.8 |
| Cc1ccc(-c2csc3c(=O)[nH]c(N4CCCC(C(=O)NCc5cccnc5)C4)nc23)cc1 (stereo not drawn) [CBK215546] | 91.7 |
| COC(=O)[C@@H]1Cc2ncn(Cc3ccc(Cl)cc3)c2CN1C(=O)c1ccc(OC)cc1 [CBK288983] | 84.2 |
| Cc1ccc2oc(C(=O)N(CCO)CCc3ccncc3)c(C)c2c1 [CBK281642] | 106 |
| Cc1cc(Cl)c(OCCn2c3ccccc3c3ccccc32)c(Br)c1 [CBK264826] | 92.2 |
| OC(Cn1cnc(-c2ccccc2)c1-c1ccccc1)Cn1c2ccccc2c2ccccc21 (stereo not drawn) [CBK261416] | 78.2 |
| COc1ccc(OCCN2CCc3ccccc3C2)cc1 [CBK126403] | 94.8 |
| N#Cc1[nH]nnc1-c1ccc(OC(F)(F)F)cc1 [CBK017386] | 95.1 |
| CC(NC(=O)C1CCN(CCCN(C)S(C)(=O)=O)CC1)c1cccc2ccccc12 (stereo not drawn) [CBK148651] | 104 |
| O=[N+]([O-])c1ccccc1NCCNS(=O)(=O)c1ccccc1 [CBK263552] | 89 |
| COc1ccccc1-c1cn2ccnc2c(N2CCCC2CO)n1 (stereo not drawn) [CBK037266] | 96.5 |
